Results reported in US5821046A, “RNA oligonucleotides that bind HIV tat protein” (RiboTargets Holdings PLC, priority 1990, dated 1998).
Values joined by “and” are separate entries in the source; they are usually repeats but may differ in a detail not shown here. Identical values can stand only once. “Also recorded” adds a separate entry of the source. Like-named read-outs stand apart in the source and are kept apart here.

Key:
HIV-1 tat protein [1] = experiment: direct filter binding assay of tat to TAR RNA (saturation binding, Scatchard analysis); conditions: for affinity of tat binding compared with wild type: gel retardation and filter binding assays (data not shown); for Kd: direct filter binding, HIV-1 TAR from saturation binding/Scatchard plot, mutants estimated from half-maximal binding, read-out: Kd (dissociation constant of tat binding)
Experimental: The results shown graphically in FIG. 4 are from experiments in which binding reactions (500 ul) contained 40 nMolar^32 P uniformly radiolabelled TAR RNA at a specific activity of 100,000 Ci/mole; 0.5 ug calf thymus DNA; 0.2 ug yeast TRNA; 40 units RNAsin (Promega); 50mm Tris-HCl pH 7.9 and 20 mM KCl. Reaction mixtures were set up on ice and increasing amounts of HIV-1 tat protein were added and the reaction mixtures were filtered through prewashed nitrocellulose filters (Millipore 0.45 uM pore size). The filters were dried and counted by liquid scintillation counting. The fraction of radiolabeled RNA bound was plotted against HIV-1 tat concentration.
Binding was measured by a filter-binding assay as described below under "Method", using monomeric tat protein prepared by CNBr cleavage of a human growth hormone-tat fusion protein expressed in E. coli. Reactions for saturation binding contained labeled TAR RNA [SEQ ID NO: 1] or antisense TAR RNA [SEQ ID NO: 6] at 10 nm and between 0 to 300 nM purified tat protein. Antisense TAR RNA was used as a control, since antisense TAR is unable to form stable complexes with tat in gel-retardation assays (Dingwall et al., 1989).
The stoichiometry of the tat/TAR interaction was determined by varying the TAR RNA concentrations over a wide range, while keeping the tat protein concentration constant near the Kd. For this Scatchard analysis, the tat protein concentration was held constant at 40 nM and the RNA concentration was varied between 7nM and 320 nM. The total amount of labeled RNA was kept constant in the binding reactions, but the specific activity of the RNA was varied. […]
Tat protein was prepared either from beta-galactosidase-tat fusion proteins (6) or from human growth-hormone-tat fusion proteins (85) using an improved method. In brief, inclusion body pellets containing the fusion protein were solubilized in 7M GdHCl, 50 mM Tris-HCl pH8.0, 2 mM EDTA, 2mM DTT and the fusion protein was purified to near homogeneity by ion-exchange chromatography on Q-Sepharose and S-Sepharose (Pharmacia) in buffers containing […], 50 mM Tris-HCl pH8.0, 2mM EDTA, 2mM DTT. The cysteine residues were protected by disulphide-exchange with 20 mM 2-hydroxyethyldisulphide (86), and the protein was cleaved by cyanogen bromide (6). The basic tat protein was then separated from the acidic human growth hormone peptides by ion-exchange chromatography on Q-Sepharose and S-Sepharose in 6M Urea. The protecting groups were then removed from the protein by addition of 10 mM DTT and the protein refolded by stepwise dialysis against 6 m Urea, 5M Urea,3M Urea, 1M Urea and 0M Urea in a buffer containing 50 mM Tris-HCl pH8.0, 100 uM DTT, 10 uM ZnCl2 Tat protein refolded in this manner elutes as a monomer from Superose 12 columns (Pharmacia) and migrates as a single band on polyacrylamide gels. Protein prepared by both methods behaved comparably in binding assays.
A wide variety of parameters affecting the binding of tat protein to TAR RNA were studied and binding conditions were optimized. Binding of tat to TAR has a distinct pH optimum at pH 8.0, but good binding is observed between pH 7.5 and pH 8.5. Tat/TAR complexes are very sensitive to ionic strength. […] Addition of Zn^+2, Cd^+2, Ca^+2, Mg,^+2, Fe^+2 or Fe^+3 ions to the reaction mixtures […]. However, the binding reaction is sensitive to EDTA at greater than 0.1 mM EDTA. Complex formation is also somewhat temperature sensitive. Optimal binding is observed at 0°C. Between 15° C. and 30° C. there is a 30% reduction in complex formation. […]

HIV-1 tat protein [2] = format: binding; conditions: 32P-labeled RNA transcript, 0 to 600 ng tat
Experimental: i) Gel retardation assays (FIG. 6) Method RNA transcripts were prepared by transcription with either T3 or T7 RNA polymerases of TAR regions residues +1 to +57, cloned between the HindIII and EcoRI sites of the Bluescribe M13+expression vector (Stratagene). RNA transcripts corresponding to HIV-1 TAR [SEQ ID NO: 1], SSA [SEQ ID NO: 3], SAA and SAS [SEQ ID NO: 5] were synthesized from clones linearized with EcoRI and transcribed with T3 RNA polymerase. RNA transcripts corresponding to the antisense HIV-1 TAR […], AAS , ASS [SEQ ID NO: 4], and ASA (not shown) sequences were prepared from the same plasmids linearized with HindIII and transcribed using T7 RNA polymerase. All other RNA molecules were synthesized using T3 RNA polymerase following EcoRI cleavage of the plasmid vector. The RNA products each carry 13 nucleotides of vector sequence at their 5' end and four nucleotides at their 3' ends. […] Transcription mixtures contained 1 ug linearized plasmid, 40 mM Tris-HCl pH 8.0, 10 mM MgCl 2, 2 mM Spermidine-HCl, 50 mM NaCl, 100 uM each ribonucleotide triphosphate, 40 uCi (alpha-^32 P) UTP (410 Ci/m mol) and 10 units of RNA polymerase in a final volume of 30 ul and were incubated at 37° C. for 30 minutes. After phenol extraction and precipitation from ethanol the RNA was purified from a 9% polyacrylamide denaturing gel. The specific activity of the RNA product was determined and appropriate amounts were used in binding assays. Binding reaction mixtures (1 5ul) contained 1 ng of uniformly labeled RNA probe, 0.5 ug calf thymus DNA, 0.2 ug yeast TRNA, 40 units RNAsin (Promega), 50 mM Tris-HCl and 20 mM KCl and 0 to 600 ng tat protein, prepared from E. coli beta-galactosidase-tat fusion proteins, as described previously (6). After incubation at either 30° C. or 4° C. for 10-20 minutes, the reaction mixtures were applied to a 6% non-denaturing polyacrylamide gel (Acrylamide: Bis, 40:0.5) in 3.3 mM sodium acetate, 6.7 mM Tris (adjusted to pH 7.9 with HCl). The gel buffer was recirculated during electrophoresis at 35 mA for approximately 2 hours at room temperature. Gels were dried and exposed to X-ray film at -80° C. using intensifying screens.

Substance | affinity of tat binding compared with wild type (HIV-1 tat protein [1]) | complex formation with tat in gel retardation assay (HIV-1 tat protein [2]) | Kd (HIV-1 tat protein [1]) [nM] | other results
SSA: sense stem, antisense loop sequence (GGGUCUCUCUGGUUAGACCAGAUUUGAGCUCCCAGGCUCUCUGGCUAACUAGGGAACCC; chemistry not given here) | bind tat with wild-type affinities | discrete complex formation | – | –
delta U (bulge): TAR RNA in which residues 23-25 are deleted (GGGUCUCUCUGGUUAGACCAGAGAGCCUGGGAGCUCUCUGGCUAACUAGGGAACCC; RNA, backbone not given here) | – | – | > 70 | complex formation with tat in gel retardation assay (HIV-1 tat protein [2]; listed as SEQ ID NO: 8): abolished tat binding; complex formation with tat in gel retardation assay (HIV-1 tat protein [2]; listed as delta U3 (bulge)): No complexes were formed
ASS: anti-sense lower stem, sense upper stem and loop sequences (GGGUUCCCUAGUUAGACCAGAUUUGAGCCUGGGAGCUCUCUGGCUAACCAGAGAGACCC; chemistry not given here) | bind tat with wild-type affinities | discrete complex formation | – | –
G to U (loop): TAR RNA in which residues 32-34 are changed to uridine (U) (GGGUCUCUCUGGUUAGACCAGAUUUGAGCCUUUUAGCUCUCUGGCUAACUAGGGAACCC; RNA, backbone not given here) | – | discrete complex formation | 25 | –
SAS: anti-sense upper stem flanked by sense lower stem and loop sequences (GGGUCUCUCUGGUUAGCCAGAGAGCCUGGGAGCUCAAAUCUGGUCUAACUAGGGAACCC; chemistry not given here) | bind tat with significantly reduced affinities | No complexes were formed; also recorded: fail to form complexes | – | –
G28 to C28: TAR point mutation expected to disrupt the top of the TAR stem/loop structure (GGGUCUCUCUGGUUAGACCAGAUUUGACCCUGGGAGCUCUCUGGCUAACUAGGGAACCC; chemistry not given here) | – | failed to bind to tat | > 100 | Kd (HIV-1 tat protein [1]; listed as SEQ ID NO: 10): 100 nM
HIV-1 TAR (UUU): full length HIV-1 TAR RNA of 59 residues prepared by transcription, wild type, UUU bulge (GGGUCUCUCUGGUUAGACCAGAUUUGAGCCUGGGAGCUCUCUGGCUAACUAGGGAACCC; unmodified RNA) [reference compound] | – | discrete complex formation | 12 | stoichiometry v, moles of RNA bound per mole of protein (HIV-1 tat protein [1]; Scatchard analysis, 40 nM tat, RNA 7-320 nM): approximately one; Kd (HIV-1 tat protein [1]; listed as HIV-1 TAR RNA): 12 nM; Kd (HIV-1 tat protein [1]; listed as TAR RNA): 12 nM; Kd (HIV-1 tat protein [1]; listed as TAR): 11.8 nM and 12 nM
